# Assay results: patent US10179914B2, “CDC25A inhibitor for the treatment of drug resistant cancer or for the prevention of tumor relapse” (INSERM (INSTITUT NATIONAL DE LA SANTÉ ET DE LA RECHERCHE …, priority 2014, dated 2019)
# Legend:
# CDC25A [1] = test: CDC25A protein level by western blot; assay type: cell-based, human; settings: for CDC25A protein level: 2 hours
# Procedure: (a) MV4-11 (left panel) and MOLM-14 (right panel) FLT3-ITD expressing cells were treated for 2 hours with FLT3 inhibitor III (100 nM), and the protein levels of CDC25A, CDC25B, CDC25C, Cyclin A, Cyclin D1 and p27Kip1 were analyzed by western blot. (b) MOLM-14 (FLT3-ITD postive), KG1 and HL-60 (FLT3 wt positive) and K562 (FLT3 negative) cell lines were treated for 2 hours with FLT3 inhibitor III and the level of CDC25A was analyzed by western blot. Actin was used as a loading control.
# (a) MV4-11 (left panel) and MOLM-14 (right panel) cells were treated for 2 hours with STAT5 inhibitor (100 nM). CDC25A, Pim1, and STAT5 protein and phosphorylation levels were analyzed by western blot. (b) MV4-11 and MOLM-14 cells were transfected for 24 hours with STAT5A/B siRNA and the impact on CDC25A protein level was analyzed by western blot. […] Actin was used as a loading control in these experiments. ns: non specific.
# (a) MV4-11 cells were first treated by cycloheximide (50 μg/mL) for 90 minutes in order to completely down regulate CDC25A. […] The FLT3 inhibitor was added 30 minutes before medium wash. This western blot is representative of three independent experiments. […] (b) CDC25A mRNA expression was measured by quantitative RT-PCR after FLT3 inhibition for 2 hours (100 nM). […] (c) MV4-11 cells were treated with cycloheximide (50 μg/mL) for the indicated times. FLT3 inhibitor III (100 nM) was added 30 minutes before cycloheximide treatment, and left in the medium. This western blot is representative of three independent experiments.
# Cell lines and reagents. […] Concerning MOLM-14 cell line, the presence of a monoallelic 21 bp FLT3-ITD mutation and of an MLL-containing ins(11; 9)(q23;p22p23) were verified (Hematology laboratory of Toulouse University Hospital, Prof E. Delabesse and Dr I. Luquet). KG1 and HL-60 (ACC-14 and ACC-3, DSMZ) cell lines were grown in Iscove's Modified Dulbecco's Medium (IMDM, Gibco) plus 20% FBS. All cells were grown in the presence of 100 units/ml of penicillin and streptomycin (Invitrogen) at 37° C. and 5% CO2.
# siRNA. The MV4-11 cell line was transfected with the Amaxa nucleofection technology (Lonza, Koeln, Germany). […] Twenty-four or forty-eight hours after transfection, cells were counted (trypan blue staining), and western blotting was performed.
# Western blot. 2×10^6 cells were usually lysed in 100 μL of NuPAGE® LDS Sample Buffer (Novex, Life Technologies, Carlsbad, Calif., USA), sonicated for 15 seconds, and boiled for 3 minutes. Proteins were then resolved on NuPAGE® 4-12% Bis-Tris Gels and transferred to nitrocellulose membrane. Saturation of the membrane was done for 1 hour in Tris Buffer Saline with Tween 0.1% (TBS-T) containing 5% non-fat milk or 5% bovine serum albumin. Membranes were blotted with proper antibodies overnight at 4° C., washed thrice with TBS-T, and incubated for 30 minutes with HRP-conjugated secondary antibody (Promega, Madison, Wis., USA).
# Cdc25A [2] = target: Cdc25A (Homo sapiens, UniProt P30304); settings: cited from earlier work
# Chain of Cdc25A (P30304 whole entry): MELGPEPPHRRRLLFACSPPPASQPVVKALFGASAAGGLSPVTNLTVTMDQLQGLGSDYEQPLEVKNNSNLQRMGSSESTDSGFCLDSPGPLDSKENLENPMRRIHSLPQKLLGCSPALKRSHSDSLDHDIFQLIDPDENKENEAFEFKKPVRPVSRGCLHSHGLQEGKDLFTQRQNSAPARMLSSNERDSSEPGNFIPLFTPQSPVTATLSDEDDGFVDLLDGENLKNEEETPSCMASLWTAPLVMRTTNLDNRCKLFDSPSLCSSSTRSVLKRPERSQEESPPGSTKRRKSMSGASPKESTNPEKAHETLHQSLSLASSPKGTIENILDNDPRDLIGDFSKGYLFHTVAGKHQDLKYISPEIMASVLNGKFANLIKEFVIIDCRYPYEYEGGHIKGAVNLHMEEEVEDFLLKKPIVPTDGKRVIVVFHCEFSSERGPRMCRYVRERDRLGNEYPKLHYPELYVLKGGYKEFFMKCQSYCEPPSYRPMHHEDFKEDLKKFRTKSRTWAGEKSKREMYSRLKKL
# Cdc25B = target: T1, Cdc25B (Homo sapiens, UniProt P30305); settings: cited from earlier work
# T1 sequence (P30305 1-580): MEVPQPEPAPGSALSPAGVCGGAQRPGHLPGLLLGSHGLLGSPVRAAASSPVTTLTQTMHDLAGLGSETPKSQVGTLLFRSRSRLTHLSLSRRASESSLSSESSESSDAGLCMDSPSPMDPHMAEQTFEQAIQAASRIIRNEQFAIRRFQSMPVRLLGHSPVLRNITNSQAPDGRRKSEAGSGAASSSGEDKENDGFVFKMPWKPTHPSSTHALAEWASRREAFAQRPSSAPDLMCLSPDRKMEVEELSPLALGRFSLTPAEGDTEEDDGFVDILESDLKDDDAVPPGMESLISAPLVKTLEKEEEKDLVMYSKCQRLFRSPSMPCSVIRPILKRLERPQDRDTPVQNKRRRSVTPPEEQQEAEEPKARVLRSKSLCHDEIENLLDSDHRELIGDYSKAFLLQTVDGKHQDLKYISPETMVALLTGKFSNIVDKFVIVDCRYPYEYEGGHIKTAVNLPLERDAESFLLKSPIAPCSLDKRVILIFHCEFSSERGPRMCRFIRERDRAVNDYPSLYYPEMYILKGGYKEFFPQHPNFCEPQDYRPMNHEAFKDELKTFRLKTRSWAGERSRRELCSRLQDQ
# Cdc25C = Cdc25C (Homo sapiens, UniProt P30307); settings: cited from earlier work
# Chain of Cdc25C (P30307 whole entry): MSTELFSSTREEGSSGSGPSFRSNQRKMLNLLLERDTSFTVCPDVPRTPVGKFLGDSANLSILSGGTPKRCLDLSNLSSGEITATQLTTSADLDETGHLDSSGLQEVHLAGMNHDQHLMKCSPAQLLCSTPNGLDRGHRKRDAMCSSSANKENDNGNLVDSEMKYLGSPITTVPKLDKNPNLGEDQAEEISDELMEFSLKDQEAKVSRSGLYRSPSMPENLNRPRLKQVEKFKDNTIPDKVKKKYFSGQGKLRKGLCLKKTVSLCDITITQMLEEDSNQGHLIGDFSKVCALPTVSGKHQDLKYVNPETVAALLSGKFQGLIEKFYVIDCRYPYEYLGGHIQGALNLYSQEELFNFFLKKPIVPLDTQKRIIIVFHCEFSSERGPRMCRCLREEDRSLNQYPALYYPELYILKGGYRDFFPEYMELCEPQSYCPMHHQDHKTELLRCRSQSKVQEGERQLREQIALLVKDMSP
# [3] = system: human cell lines (tumor cell proliferation); settings: cited from earlier work
# Mia-Paca-2 tumors = settings: active after oral administration; cited from earlier work
# CDC25A mRNA = CDC25A mRNA by quantitative RT-PCR; assay type: cell-based, human; settings: two hours, 100 nM, MOLM-14 cells
# Procedure: (a) MV4-11 cells were first treated by cycloheximide (50 μg/mL) for 90 minutes in order to completely down regulate CDC25A. Cells were then placed in normal culture conditions in the presence (lower panel) or the absence (upper panel) of FLT3 inhibitor (100 nM), and western blot analysis of CDC25A was performed at the indicated times. The FLT3 inhibitor was added 30 minutes before medium wash. This western blot is representative of three independent experiments. […] (b) CDC25A mRNA expression was measured by quantitative RT-PCR after FLT3 inhibition for 2 hours (100 nM). […] (c) MV4-11 cells were treated with cycloheximide (50 μg/mL) for the indicated times. FLT3 inhibitor III (100 nM) was added 30 minutes before cycloheximide treatment, and left in the medium. This western blot is representative of three independent experiments.
# Quantitative RT-PCR. Total RNA was extracted by RNeasy Kit (Qiagen) according to the manufacturer. RNA quality and purity was assessed by using the Agilent RNA 6000 Nano kit (Agilent Technologies, Santa Clara, Calif., USA). cDNA was generated with the SuperScript III First-Strand Synthesis System for RT-PCR (Invitrogen) following the manufacturer instructions. […] Results were analyzed with the LightCycler®480 software release 1.5.0 SP4 using the conventional ΔΔCt method.
# MOLM-14 and MV4-11 cells = test: Differentiation of FLT3-ITD AML cell lines (surface markers, morphology); assay type: cell-based, human; settings: another CDC25 inhibitor
# Procedure: (a-b) MOLM-14 and MV4-11 cells were treated for different times with IRC-083864 (100 nM and 200 nM) and the expression of the cell surface markers CD11b, CD14 and CD15 were followed by flow cytometry analysis. (c) MOLM-14 and MV4-11 cells were treated for different times with IRC-083864 (100 nM) and morphological changes were estimated by microscopy after cells were cytospun and stained at days 8 and 13. Original magnification ×100. (d) MOLM-14 cells were treated for different times with IRC-083864 (100 nM) and c-myc expression as well as C/EBPα phosphorylation on serine 21 were analyzed by western blot at day 1, and C/EBPε expression after 6 days of treatment. (e) MOLM-14 cells were transfected with CDC25A shRNA The expression of the cell surface markers CD11b, CD14 and CD15 were followed by flow cytometry analysis at day 3 and 6 (upper panel), and their morphology was analyzed by microscopy after 6 days (lower panel). Original magnification ×100. (f) MOLM-14 cells were transfected with CDC25A siRNA, and their morphology was analyzed by microscopy after 3 days (upper panel). Original magnification ×100. The efficiency of CDC25A siRNA was assessed by western blot analysis (lower panel).
# Lentiviral infections. To generate lentiviral vectors expressing CDC25A protein, sequences were cloned into the pTrip-TAL-Ires-GFP lentiviral vector. We used 293-T packaging cells, co-transfected with lentiviral protein (GAG, POL, and ENV) encoding plasmids, and plasmids containing a control or CDC25A genes, separately. Supernatants containing lentivirus were collected 48 h after transfection, during 3 consecutive days. MOLM-14 cells were plated at 5×10^5 cells in 200 μl in serum-free medium and 5 μl of lentiviral supernatant was added during 3 h. Cells were then grown in 10% FBS RPMI medium.
# Flow cytometry. Apoptotic cells were detected with Annexin V-FITC detection kit from BD Pharmingen (San Diego, Calif., USA) according to the manufacturer instructions. To evaluate AML cell differentiation, cells were stained for 30 min with the following anti-human monoclonal antibodies: CD11b-PE (Beckman Coulter), CD14-FITC (BD Biosciences), CD15-APC (BD Biosciences). For patient samples, additional hCD45-APC-H7 (BD Biosciences), Annexin V-Pacific Blue (BioLegend, San Diego, Calif., USA) and 7-AAD (Sigma) were used; and for bone marrow mice cells, additional CD33-FITC, CD44-PE Cy7, mCD45-PerCP Cy 5.5, CD14-Alexa 700 were used. Data were collected on a LSRII or a LSRFortessa cytometer (BD Biosciences), and analyzed with FlowJo software. A minimum of 10,000 events was collected.
# Morphological examination. […] were spun at 500 rpm for 5 minutes onto glass slides and May-Grünwald-Giemsa stained at the Toulouse University Hospital hematology laboratory.
# [4] = system: FLT3-wild type primary AML samples; test: Differentiation of FLT3 wild-type primary AML samples; assay type: cell-based, human; settings: same conditions
# Excerpt: Patient samples. Patient AML samples were obtained after informed consent in accordance with the Declaration of Helsinki and stored at the HIMIP collection. According to the French law, HIMIP collection has been declared to the Ministry of Higher Education and Research (DC 2008-307 collection 1) and obtained a transfer agreement (AC 2008-129) after approbation by ethical committees (Comité de Protection des Personnes Sud-Ouest et Outremer II and APHP ethical committee). Clinical and biological annotations of the samples have been declared to the CNIL (Comité National Informatique et Libertés i.e. Data processing and Liberties National Committee). Frozen cells were thawed in IMDM medium with 20% FBS and immediately processed for treatment. All patients were diagnosed at the Department of Hematology of Toulouse University Hospital.
# Co-cultures. […]
# Flow cytometry. Apoptotic cells were detected with Annexin V-FITC detection kit from BD Pharmingen (San Diego, Calif., USA) according to the manufacturer instructions. […] Data were collected on a LSRII or a LSRFortessa cytometer (BD Biosciences), and analyzed with FlowJo software. […]
# human Hep 3B tumor cells = settings: read-out: IC50 growth of human Hep 3B tumor cells; cited from earlier work
# [5] = system: transplanted rat hepatoma cells (Fisher F344); settings: delivered intraperitoneally; cited from earlier work
smiles,measurement,setting,value
"CC(C)(C)c1cc(NC(=O)Nc2ccc(-c3cn4c(n3)sc3cc(OCCN5CCOCC5)ccc34)cc2)no1 [AC220, quizartinib]",CDC25A protein level,CDC25A [1]; MV4-11 and MOLM-14 cells,induced CDC25A down-regulation
"Cc1nc2c(s1)C(=O)C=C(NCCN(C)C)C2=O [BN82685, reference compound]",IC50,Cdc25A [2],250 nM
same,IC50,Cdc25B,250 nM
same,IC50,Cdc25C,171 nM
same,"growth inhibition in presence of classical resistance mechanisms (drug efflux pumps, P-glycoprotein, multi-drug resistance proteins)",[3],unaffected
same,duration of proliferation inhibition after short treatment,[3]; treatment time 1 h,96 h
same,growth of Mia-Paca-2 tumors xenografted into nude mice,Mia-Paca-2 tumors,inhibited the growth
c1ccc(-c2cnc(Nc3ccc(OCCN4CCCC4)cc3)s2)cc1 [FLT3 inhibitor III],CDC25A protein level,"CDC25A [1]; KG1, HL-60 (FLT3-wild type) and K562 (FLT3 non-expressing) cells",did not modify
same,CDC25A protein level,CDC25A [1]; MV4-11 and MOLM-14 cells,induced CDC25A down-regulation
same,stability of CDC25A protein (half-life with cycloheximide),"CDC25A [1]; cycloheximide 50 μg/mL, inhibitor 100 nM",did not significantly modify
same,accumulation of CDC25A protein (rate of synthesis),"CDC25A [1]; time course, 100 nM, FIG. 3a",significantly decreased
same,CDC25A mRNA level,CDC25A mRNA,significantly reduced
"O=C1C(SCCO)=C(SCCO)C(=O)c2ccccc21 [NSC-95397, reference compound]","CD11b, CD14 and CD15 markers expression",MOLM-14 and MV4-11 cells,modifications
same,nuclear morphology,MOLM-14 and MV4-11 cells,nuclear morphological changes
same,differentiation of FLT3-wild type samples,[4],no evidence of differentiation
O=C1C(SCCO)=C(SCCO)C(=O)N1c1ccc(-c2ccccc2)cc1 [PM20],IC50,human Hep 3B tumor cells,700 nM
same,growth of transplanted rat hepatoma cells in vivo,[5],inhibits the growth
